Reference: patent US20230151334A1, “CULTURE PLATFORMS, METHODS, AND USES THEREOF” (HELSINGIN YLIOPISTO, priority 2020, published 2023)
“Also recorded” adds a separate entry of the source.

Tests used:
[1] = test system: PDEC-N and PDEC-BC; test: Immunofluorescent staining of nuclear ERα and phosphorylated p38 in PDEC-N and PDEC-BC after compound exposure; format: cell-based, human
Protocol: Fresh tissue was obtained from elective breast cancer surgeries. Tissue was collected from both the tumor tissue and the area surrounding the tumor (non-tumor samples). Also tissue from reduction mammoplasties (RMP) were collected. From every tumor, one portion was taken for immunohistochemical analysis (IHC), for DNA/RNA/protein isolation, and the rest was used for isolation of fragments and 3D culture. For isolation of human breast cancer fragments, breast cancer tissue was incubated with 0.2% collagenase in MammoCult media produced by StemCell technologies (supplemented with 4 ug/mL heparin, MammoCult proliferation supplements, 0.1 µg/mL 10.000 UI/mL PenStrep, Amphotericin, and 25 µg/mL Gentamycin) with gentle shaking at 37° C. overnight. The resulting cell suspension was then centrifuged at 1,300 rpm for 3 min, washed once with MammoCult and plated in 8-chamber plates. Matrices used for the cultures were: Agarose (UltraPure™ Low Melting Point Agarose, Invitrogen™), Collagen (Collagen I Rat tail, Corning), Matrigel (Matrigel Basement Matrix Growth Factor Reduced, 8.8 mg/mL, Corning), Egg white, Ovomucine, GrowDex (15 mg/mL, UPM-Kymmene OYj), Alginate (Alginic acid sodium salt, Aldrich) and Alginate-RGD (Sodium Alginate MVG GRGDSP, NovaMatrix, NOVATACH). Ovomucin was isolated from chicken egg whites according to an established protocol (Omana and Wu, 2009, J Agric Food Chem 57, 3596-3603). Briefly, ovomucin was isolated from egg white using isoelectric precipitation in the presence of 100 mM NaCl solution at pH adjusted to 6.0. The resulting mixture was stored overnight at 4° C. in a refridgerator followed by centrifugation. The precipitate was re-suspended in 500 mM NaCl solution at pH 6.0 again and stored overnight at 4° C. The dispersion was centrifuged, and the precipitate was purified by dialyzing against water overnight. Dialysed sample was freeze-dried under the vacuum. For gelation, the solid ovomucin powder was dissolved in MilliQ (18 W) water using Ultra-Turrax (IKA) mixer.
(§1) For immunofluorescent analysis 3D cultured breast cancer fragments were fixed with 4% paraformaldehyde for 20 min at room temperature and washed three times with PBS. The tissue fragments were permeabilized with 0.25% Triton X-100 in PBS for 10 min at RT and blocked in IF buffer (7.7 mM NaN3, 0.1% BSA, 0.2% Triton X-100, and 0.05% Tween 20 in PBS) supplemented with 10% (vol/vol) normal goat serum for1-1.5 h. The fragments were then incubated with the primary antibody diluted in blocking solution overnight at +4° C. Following incubation, fragments were washed three times with IF buffer (20 min each wash) and then incubated with the appropriate Alexa Fluor secondary antibody diluted in IF buffer with 10% goat serum. After 60 min of incubation at RT, the fragments were washed with IF buffer as before and the nuclei were counterstained with Hoechst 33258 (Sigma). Slides containing tissue fragments were mounted with ImmuMount reagent. Images of the structures were acquired using a Leica TCS SP8 CARS confocal microscope using a HC PL APO CS2 40x objective.
(§2) We observed stress-responsive mitogen-activated protein kinase (MAPKs) pathway activated in the in LMx-Ag, compared to LMx-Al. The nuclear expression of phosphorylated p38 was also visible in the MMECs cultured in LMx-Ag. To confirm the role of stress-responsive mitogen-activated protein kinases in the ERα activation, we used anisomycin to directly activate the pathway in TNBC cell line, DU4475. […] We used inhibitor of the methyltransferase EZH2, which mediates the silencing of ERα and observed the retained expression of ERα (FIG. 4D).

[2] = test system: TNBC cell line, DU4475; test: Western blot of ERα in TNBC cell line after anisomycin treatment; format: cell-based
Text: as §2

[3] = test system: MMECs; test: Immunofluorescent staining of nuclear ERα in MMECs after compound exposure; format: cell-based, mouse; details: MMECs after exposure to compound
Protocol: Mouse primary mammary epithelial fragments were isolated with 0.2% collagenase for 1 h at +37° C. Media used for the mouse tissue was DMEM/F12 (Thermo Fisher Scientific) supplemented with 5% horse serum, 5 ug/mL Insulin, 1 µg/mL hydrocortisone, 10 ng/mL EGF, and 100 U PenStrep.
as §1, with “objective. […]” for “objective.”

[4] = test system: ERα downstream targets PGR and GREB1 in PDEC-BC; test: QRT-PCR of ERα target genes in PDEC-BC cultures after tamoxifen/antiestrogen treatment; format: cell-based, human
Protocol: Instead of anisomycin, the stress activated protein kinase pathway is also activated by multiple other factors e.g oxidative stress. We observed, if the PDEC cultures were performed under a higher oxygen concentration, such as in air-liquid interface, the functional ERα was preserved together with the activation of p38 (FIG. 5A). We treated these PDEC-BC with antiestrogens and observed a suppression in ERα downstream targets PGR and GREB1 (FIG. 5B).
We exposed the human PDEC-N and PDEC-BC cultures to the additional compressive forces with the magnet mediated mechanical compression (FIG. 5C). […] We treated the compressed PDEC-BC with tamoxifen and observed a suppression in ERα downstream targets PGR and GREB1 (FIG. 5E).

[5] = test system: TNBC cell line DU4475; test: Immunofluorescent staining of nuclear ERα in TNBC cell line DU4475 after EZH2 inhibitor; format: cell-based; details: TNBC cell line DU4475 after exposure to compound
[6] = PDEC-BC (PDEC-T) after exposure to compound
[7] = PDEC-N after exposure to compound
[8] = PDEC-BC exposed to magnet-mediated compression

For `COc1ccc(C[C@H]2NC[C@H](O)[C@H]2OC(C)=O)cc1` [anisomycin], the “nuclear ERα (immunofluorescent staining)” value [1, 6] was “activation of nuclear ERα”, the “phosphorylated p38 (immunofluorescent staining)” value ([1]; PDEC-BC after exposure to compound) was “activation of phosphorylated-38” and the “nuclear ERα (immunofluorescent staining)” value [1, 7] was “activation of nuclear ERα”. For the same molecule, the “phosphorylated p38 (immunofluorescent staining)” value [1, 7] was “activation of phosphorylated-38”, the “ERα expression (Western blot)” value [2] was “able to activate the ERα expression; also recorded: upregulation of ERα” and the “nuclear ERα (immunofluorescent staining)” value [3] was “activation of nuclear ERα”.

In the case of `CC/C(=C(\c1ccccc1)c1ccc(OCCN(C)C)cc1)c1ccccc1` [tamoxifen], the GREB1 expression [4, 8] is reported as “suppression”, the “PGR expression (QRT-PCR)” value [4, 8] is reported as “suppression” and the “PGR expression (QRT-PCR)” value ([4]; PDEC-BC exposed to magnet-mediated compression, listed as Tamoxifen) is reported as “suppresses”. The “PGR expression (QRT-PCR)” value ([4]; air-liquid interface (ALI) cultured PDEC-BC, o/n treatment) was “downregulation”.

`CC[C@H](C)n1cc(C)c2c(C(=O)NCc3c(C)cc(C)[nH]c3=O)cc(-c3ccc(N4CCNCC4)nc3)cc21` [GSK-126] was tested, and the “nuclear ERα (immunofluorescent staining)” value [5] was “activation of nuclear ERα”, the “nuclear ERα (immunofluorescent staining)” value [1, 6] was “activation of nuclear ERα” and the “nuclear ERα (immunofluorescent staining)” value [1, 7] was “activation of nuclear ERα”. The “nuclear ERα (immunofluorescent staining)” value [3] was “activation of nuclear ERα”.
